From patent US8618153B2, “Hepatitis C virus inhibitors” (Bristol-Myers Squibb Company, priority 2009, dated 2013)

system: HCV 1b genotype; assay: HCV Replicon assay (HCV-neo replicon cells), 1b genotype; format: cell-based; conditions: Hepatitis C virus; HCV 1b genotype replicon; numeric value; read-out: 1b EC50 (in μM or range)
Method: An HCV Replicon assay was utilized in the present disclosure, and was prepared, conducted and validated as described in commonly owned PCT/US2006/022197 and in O'Boyle et al., Antimicrob. Agents Chemother., 49(4):1346-1353 (April 2005). Assay methods incorporating luciferase reporters have also been used as described (Apath.com).
HCV-neo replicon cells and replicon cells containing mutations in the NS5A region were used to test the currently described family of compounds. The compounds were determined to have more than 10-fold less inhibitory activity on cells containing mutations than wild-type cells. Thus, the compounds of the present disclosure can be effective in inhibiting the function of the HCV NS5A protein and are understood to be as effective in combinations as previously described in application PCT/US2006/022197 and commonly owned WO 04/014852. Further, the compounds of the present disclosure can be effective against the HCV 1b genotype. It should also be understood that the compounds of the present disclosure can inhibit multiple genotypes of HCV. […] In one embodiment compounds of the present disclosure are inhibitory versus 1a, 1b, 2a, 2b, 3a, 4a, and 5a genotypes. […] The compounds of the present disclosure may inhibit HCV by mechanisms in addition to or other than NS5A inhibition. In one embodiment the compounds of the present disclosure inhibit HCV replicon and in another embodiment the compounds of the present disclosure inhibit NS5A.

Going from `COC(=O)N[C@H](C(=O)N1CCC[C@H]1c1ncc(-c2ccc(-c3ccc(-c4cnc([C@@H]5CCCN5C(=O)[C@@H](NC(=O)OC)C(C)C)[nH]4)s3)s2)[nH]1)C(C)C` [Example 6, Methyl ((1S)-1-(((2S)-2-(4-(5′-(2-((2S)-1-((2S)-2-((methoxycarbonyl)amino)-3-methylbutanoyl)-2-pyrrolidinyl)-1H-imidazol-4-yl)-2,2′-bithiophen-5-yl)-1H-imidazol-2-yl)-1-pyrrolidinyl)carbonyl)-2-methylpropyl)carbamate] to `COC(=O)N[C@@H](C(=O)N1CCC[C@H]1c1ncc(-c2ncc(-c3cnc(-c4cnc([C@@H]5CCCN5C(=O)[C@H](NC(=O)OC)C(C)C)[nH]4)s3)s2)[nH]1)C(C)C` [Example 11, Methyl ((1R)-1-(((2S)-2-(4-(2′-(2-((2S)-1-((2R)-2-((methoxycarbonyl)amino)-3-methylbutanoyl)-2-pyrrolidinyl)-1H-imidazol-4-yl)-5,5′-bi-1,3-thiazol-2-yl)-1H-imidazol-2-yl)-1-pyrrolidinyl)carbonyl)-2-methylpropyl)carbamate], the EC50 rises from 0.003 nM to 5860 nM. The first is the more potent here.

same assay, conditions: Hepatitis C virus; HCV 1b genotype replicon; value given as range class; read-out: 1b EC50 (in μM or range)

Compared with `COC(=O)N[C@@H](C)C(=O)N1CCC[C@H]1c1ncc(-c2ccc(-c3ccc(-c4cnc([C@@H]5CCCN5C(=O)[C@H](C)NC(=O)OC)[nH]4)s3)s2)[nH]1` [Example 1, Methyl ((1S)-2-((2S)-2-(4-(5′-(2-((2S)-1-(N-(methoxycarbonyl)-L-alanyl)-2-pyrrolidinyl)-1H-imidazol-4-yl)-2,2′-bithiophen-5-yl)-1H-imidazol-2-yl)-1-pyrrolidinyl)-1-methyl-2-oxoethyl)carbamate], `COC(=O)N[C@@H](C(=O)N1CCC[C@H]1c1ncc(-c2ccc(-c3ccc(-c4cnc([C@@H]5CCCN5C(=O)[C@H](NC(=O)OC)C(C)C)[nH]4)s3)s2)[nH]1)C(C)C` [Example 3, Methyl ((1R)-1-(((2S)-2-(4-(5′-(2-((2S)-1-((2R)-2-((methoxycarbonyl)amino)-3-methylbutanoyl)-2-pyrrolidinyl)-1H-imidazol-4-yl)-2,2′-bithiophen-5-yl)-1H-imidazol-2-yl)-1-pyrrolidinyl)carbonyl)-2-methylpropyl)carbamate] is higher in EC50: under 1 nM for the first, 10 to 10000 nM for the second.

First: COCC[C@H](NC(=O)OC)C(=O)N1CCC[C@H]1c1ncc(-c2ccc(-c3ccc(-c4cnc([C@@H]5CCCN5C(=O)[C@H](CCOC)NC(=O)OC)[nH]4)s3)s2)[nH]1 [Example 2, Methyl ((1S)-3-methoxy-1-(((2S)-2-(4-(5′-(2-((2S)-1-(N-(methoxycarbonyl)-O-methyl-L-homoseryl)-2-pyrrolidinyl)-1H-imidazol-4-yl)-2,2′-bithiophen-5-yl)-1H-imidazol-2-yl)-1-pyrrolidinyl)carbonyl)propyl)carbamate]
Second: COCC[C@H](NC(=O)OC)C(=O)N1CCC[C@H]1c1ncc(-c2ncc(-c3cnc(-c4cnc([C@@H]5CCCN5C(=O)[C@H](CCOC)NC(=O)OC)[nH]4)s3)s2)[nH]1 [Example 13, Methyl ((1S)-3-methoxy-1-(((2S)-2-(4-(2′-(2-((2S)-1-(N-(methoxycarbonyl)-O-methyl-L-homoseryl)-2-pyrrolidinyl)-1H-imidazol-4-yl)-5,5′-bi-1,3-thiazol-2-yl)-1H-imidazol-2-yl)-1-pyrrolidinyl)carbonyl)propyl)carbamate]
The EC50 of the first is lower: under 1 nM for the first, 10 to 10000 nM for the second.

`COC(=O)N[C@@H](C(=O)N1CCC[C@H]1c1ncc(-c2ccc(-c3ccc(-c4cnc([C@@H]5CCCN5C(=O)[C@H](NC(=O)OC)c5ccccc5)[nH]4)s3)s2)[nH]1)c1ccccc1` [Example 4, Dimethyl (2,2′-bithiene-5,5′-diylbis(1H-imidazole-4,2-diyl(2S)-2,1-pyrrolidinediyl((1R)-2-oxo-1-phenyl-2,1-ethanediyl)))biscarbamate] and `COC(=O)N[C@@H](C(=O)N1CCC[C@H]1c1ncc(-c2ncc(-c3cnc(-c4cnc([C@@H]5CCCN5C(=O)[C@H](NC(=O)OC)c5ccccc5)[nH]4)s3)s2)[nH]1)c1ccccc1` [Example 9, Dimethyl (5,5′-bi-1,3-thiazole-2,2′-diylbis(1H-imidazole-4,2-diyl(2S)-2,1-pyrrolidinediyl((1R)-2-oxo-1-phenyl-2,1-ethanediyl)))biscarbamate] cannot be ordered by EC50: under 1 nM for the first, under 1 nM for the second.

`CN(C)[C@@H](C(=O)N1CCC[C@H]1c1ncc(-c2ccc(-c3ccc(-c4cnc([C@@H]5CCCN5C(=O)[C@@H](c5ccccc5)N(C)C)[nH]4)s3)s2)[nH]1)c1ccccc1` [Example 5, (1R′,1′R)-2,2′-(2,2′-Bithiene-5,5′-diylbis(1H-imidazole-4,2-diyl(2S)-2,1-pyrrolidinediyl))bis(N,N-dimethyl-2-oxo-1-phenylethanamine)] and `CN(C)[C@@H](C(=O)N1CCC[C@H]1c1ncc(-c2ncc(-c3cnc(-c4cnc([C@@H]5CCCN5C(=O)[C@@H](c5ccccc5)N(C)C)[nH]4)s3)s2)[nH]1)c1ccccc1` [Example 8, (1R,1′R)-2,2′-(5,5′-Bi-1,3-thiazole-2,2′-diylbis(1H-imidazole-4,2-diyl(2S)-2,1-pyrrolidinediyl))bis(N,N-dimethyl-2-oxo-1-phenylethanamine)] cannot be ordered by EC50: under 1 nM for the first, under 1 nM for the second.

`COC(=O)N[C@H](C(=O)N1CCC[C@H]1c1ncc(-c2ccc(-c3ccc(-c4cnc([C@@H]5CCCN5C(=O)[C@@H](NC(=O)OC)C5CC5)[nH]4)s3)s2)[nH]1)C1CC1` [Example 7, Dimethyl (2,2′-bithiene-5,5′-diylbis(1H-imidazole-4,2-diyl(2S)-2,1-pyrrolidinediyl((1S)-1-cyclopropyl-2-oxo-2,1-ethanediyl)))biscarbamate] and `COC(=O)N[C@H](C(=O)N1CCC[C@H]1c1ncc(-c2cnc(-c3ncc(-c4cnc([C@@H]5CCCN5C(=O)[C@@H](NC(=O)OC)C(C)C)[nH]4)s3)s2)[nH]1)C(C)C` [Example 14, Methyl ((1S)-1-(((2S)-2-(4-(5′-(2-((2S)-1-((2S)-2-((methoxycarbonyl)amino)-3-methylbutanoyl)-2-pyrrolidinyl)-1H-imidazol-4-yl)-2,2′-bi-1,3-thiazol-5-yl)-1H-imidazol-2-yl)-1-pyrrolidinyl)carbonyl)-2-methylpropyl)carbamate] cannot be ordered by EC50: under 1 nM for the first, under 1 nM for the second.

First: COC(=O)N[C@H](C(=O)N1CCC[C@H]1c1ncc(-c2ncc(-c3cnc(-c4cnc([C@@H]5CCCN5C(=O)[C@@H](NC(=O)OC)C(C)C)[nH]4)s3)s2)[nH]1)C(C)C [Example 10, Methyl ((1S)-1-(((2S)-2-(4-(2′-(2-((2S)-1-((2S)-2-((methoxycarbonyl)amino)-3-methylbutanoyl)-2-pyrrolidinyl)-1H-imidazol-4-yl)-5,5′-bi-1,3-thiazol-2-yl)-1H-imidazol-2-yl)-1-pyrrolidinyl)carbonyl)-2-methylpropyl)carbamate]
Second: COC(=O)N[C@H](C(=O)N1CCC[C@H]1c1ncc(-c2ncc(-c3cnc(-c4cnc([C@@H]5CCCN5C(=O)[C@@H](NC(=O)OC)[C@@H](C)OC)[nH]4)s3)s2)[nH]1)[C@@H](C)OC [Example 12, Methyl ((1S,2R)-2-methoxy-1-(((2S)-2-(4-(2′-(2-((2S)-1-(N-(methoxycarbonyl)-O-methyl-L-threonyl)-2-pyrrolidinyl)-1H-imidazol-4-yl)-5,5′-bi-1,3-thiazol-2-yl)-1H-imidazol-2-yl)-1-pyrrolidinyl)carbonyl)propyl)carbamate]
The EC50 of the first is lower: 1 to 10 nM for the first, 10 to 10000 nM for the second.
